Data on three compounds can be found in publication PMC9782245, “Synthesis and Structural Optimization of 2,7,9-Trisubstituted purin-8-ones as FLT3-ITD Inhibitors” (International Journal of Molecular Sciences, 2022).

Experiment [1] concerns the target T1, MER (Homo sapiens, UniProt Q12866).
T1 construct: purchased Eurofins Discovery (France)
T1 sequence (Q12866 21-999): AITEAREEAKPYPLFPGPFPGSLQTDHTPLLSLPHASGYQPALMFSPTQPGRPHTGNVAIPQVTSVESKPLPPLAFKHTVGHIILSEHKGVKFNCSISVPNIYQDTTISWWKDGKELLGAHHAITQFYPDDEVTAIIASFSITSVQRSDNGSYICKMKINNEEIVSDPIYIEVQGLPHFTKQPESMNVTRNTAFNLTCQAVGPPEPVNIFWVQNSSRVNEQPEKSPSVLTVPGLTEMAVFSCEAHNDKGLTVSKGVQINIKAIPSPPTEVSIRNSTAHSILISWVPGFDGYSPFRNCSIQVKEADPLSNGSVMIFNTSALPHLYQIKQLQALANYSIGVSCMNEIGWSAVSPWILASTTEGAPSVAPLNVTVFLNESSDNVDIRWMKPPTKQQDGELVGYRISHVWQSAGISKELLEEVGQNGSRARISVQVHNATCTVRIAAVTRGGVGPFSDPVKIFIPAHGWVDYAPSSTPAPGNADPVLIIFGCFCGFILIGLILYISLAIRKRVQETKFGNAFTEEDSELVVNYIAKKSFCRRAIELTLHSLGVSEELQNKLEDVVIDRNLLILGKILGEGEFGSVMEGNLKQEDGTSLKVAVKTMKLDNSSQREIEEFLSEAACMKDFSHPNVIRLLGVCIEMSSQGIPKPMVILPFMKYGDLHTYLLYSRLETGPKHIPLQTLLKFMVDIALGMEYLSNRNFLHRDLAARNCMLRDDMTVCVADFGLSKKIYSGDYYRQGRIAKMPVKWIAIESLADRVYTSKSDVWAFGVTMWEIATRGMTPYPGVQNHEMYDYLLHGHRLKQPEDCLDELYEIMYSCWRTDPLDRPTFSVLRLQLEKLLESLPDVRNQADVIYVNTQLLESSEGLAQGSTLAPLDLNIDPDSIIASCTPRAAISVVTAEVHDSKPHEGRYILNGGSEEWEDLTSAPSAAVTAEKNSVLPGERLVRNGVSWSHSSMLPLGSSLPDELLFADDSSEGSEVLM
Kind of experiment: Kinase selectivity panel at 1 µM (Eurofins), MER. The experiment is classed as biochemical. The conditions noted are these: read-out: residual enzyme activity MER. The protocol:
(§1) Three representative compounds (14d, 14e, and 15a) were profiled in a 1 µM concentration against 30 kinases that were selected as known off-targets of approved CDK4/6 inhibitors. […] Additional sensitive kinases include STK16, EphA1, MEKK2, SRC, and MER (≤10% of residual enzyme activities), which are not targets of the structurally similar CDK4/6 inhibitor, trilaciclib. We also screened compound 15a, an analogue of 14d, bearing isopropyl at position 7 of the purine instead of the methyl group. This change rapidly diminished the potency against CDK4 (dropped to 90% of residual enzyme activity), but the preference for FLT3 remained (1st rank) (Figure 2).
(§2) CDK/cyclin complexes and FLT3 kinases were assayed as previously described. Protein kinase selectivity was evaluated at a single concentration (1 µM) by screening against 30 enzymes at Eurofins Discovery (France).

Experiment [2] concerns the target T2, STK16 (Homo sapiens, UniProt O75716).
T2 construct: purchased Eurofins Discovery (France)
The experiment can be described thus: Kinase selectivity panel at 1 µM (Eurofins), STK16. The experiment is classed as biochemical. The conditions noted are these: read-out: residual enzyme activity STK16. On the procedure: as §1, §2

Experiment [3] has as its target T3, MEKK2 (Homo sapiens, UniProt Q9Y2U5).
T3 construct: purchased Eurofins Discovery (France)
T3 sequence (Q9Y2U5 1-619): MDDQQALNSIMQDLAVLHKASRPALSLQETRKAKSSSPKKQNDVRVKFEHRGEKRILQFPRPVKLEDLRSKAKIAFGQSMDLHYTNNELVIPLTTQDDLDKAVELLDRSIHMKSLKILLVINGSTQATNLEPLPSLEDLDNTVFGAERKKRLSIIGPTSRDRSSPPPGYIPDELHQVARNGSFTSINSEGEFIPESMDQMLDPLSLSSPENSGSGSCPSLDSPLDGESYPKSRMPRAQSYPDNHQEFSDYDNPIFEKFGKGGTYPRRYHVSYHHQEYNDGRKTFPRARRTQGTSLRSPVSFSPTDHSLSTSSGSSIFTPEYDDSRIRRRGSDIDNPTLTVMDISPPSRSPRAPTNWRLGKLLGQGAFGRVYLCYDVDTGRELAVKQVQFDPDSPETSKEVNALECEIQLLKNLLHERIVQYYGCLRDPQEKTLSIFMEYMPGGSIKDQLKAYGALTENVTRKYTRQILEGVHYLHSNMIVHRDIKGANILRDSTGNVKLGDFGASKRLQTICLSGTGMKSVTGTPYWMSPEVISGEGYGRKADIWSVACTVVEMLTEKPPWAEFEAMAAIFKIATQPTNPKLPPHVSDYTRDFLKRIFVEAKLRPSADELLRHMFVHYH
Kind of experiment: Kinase selectivity panel at 1 µM (Eurofins), MEKK2. The format is biochemical. The conditions noted are these: read-out: residual enzyme activity MEKK2. On the procedure:
as §1, §2

Experiment [4] deals with K562 cells. Kind of experiment: Flow cytometric cell cycle analysis, K562. The experiment is classed as cell-based, Human. The conditions noted are these: 24 h. On the procedure: FLT3 inhibition causes G1-cell cycle arrest in FLT3-dependent cell lines such as MV4-11; we, therefore, performed flow cytometric analysis to evaluate cell cycle changes in MV4-11 and K562 cell lines treated with 200 nM compounds for 24 h. […] Specifically, 18 compounds arrested >85% of cells in the G1 phase, which is >30% cells in the G1 phase of the cell cycle than in control cells (Figure 4A).
Finally, we performed flow cytometric analysis with different concentrations of 15a in MV4-11 and MOLM13 (another FLT-ITD positive cell line) and K562 cell lines treated for 24 h (Figure 5).
Asynchronously growing cells were seeded into a 96-well plate and, after a preincubation period, treated with tested compounds for 24 h. The treated cells were stained directly (or after trypsinization for the adherent cells) with the 5× staining solution (17 mM trisodium citrate dihydrate, 0.5% IGEPAL CA-630, 7.5 mM spermine tetrahydrochloride, and 2.5 mM Tris; pH 7.6 containing […] propidium iodide). After the staining, DNA content was analyzed using flow cytometry using a 488 nm laser (BD FACS Verse with software BD FACSuite^TM, version 1.0.6). Cell cycle distribution was analyzed using ModFit LT (Verity Software House, version 5.0). Palbociclib, trilaciclib, and quizartinib were purchased from MedChemExpress, Monmouth Junction, NJ, USA.
On the technique in general: In flow cytometry, cells or beads pass a laser one at a time.

Molecules are shown by their SMILES.

T2 sequence (O75716 whole entry): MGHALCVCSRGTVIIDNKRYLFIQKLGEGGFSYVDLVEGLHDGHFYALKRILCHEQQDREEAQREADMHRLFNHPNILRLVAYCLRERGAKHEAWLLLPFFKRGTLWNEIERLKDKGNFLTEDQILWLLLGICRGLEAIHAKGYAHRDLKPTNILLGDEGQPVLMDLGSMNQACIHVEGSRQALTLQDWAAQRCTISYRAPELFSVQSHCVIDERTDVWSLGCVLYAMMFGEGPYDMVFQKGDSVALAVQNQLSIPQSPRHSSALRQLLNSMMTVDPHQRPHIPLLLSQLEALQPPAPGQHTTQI

In the case of `Cn1c(=O)n(C2CCCC2)c2nc(Nc3ccc(N4CCNCC4)cc3)ncc21` [14d], the remaining activity at 1 µM in experiment [1], in experiment [2] and in experiment [3] was not above 10% in each case.
As to `CC(C)n1c(=O)n(C2CCCC2)c2nc(Nc3ccc(N4CCNCC4)cc3)ncc21` [15a, 9-cyclopentyl-7-isopropyl-2-((4-(piperazin-1-yl)phenyl)amino)-7,9-dihydro-8H-purin-8-one], in experiment [4] (different concentrations), the “cell cycle changes in K562” value is “did not show any changes”.
On to `Cn1c(=O)n(C2CCCCC2)c2nc(Nc3ccc(N4CCNCC4)cc3)ncc21` [14e], for which the remaining activity at 1 µM in experiment [1], in experiment [2] and in experiment [3] was not above 10% in each case. The “effect on cell cycle (G1 arrest) in K562” value in experiment [4] (200 nM) is given as “moderate G1 block”.
